Data from patent publication US11679107B2 (Eisai R&D Management Co., Ltd., priority 2018, dated 2023).
Where two headings read alike, the source gives them in different places.

Columns and labels:
[1] = tested on: Ad2 variant pre-mRNAs spliced in HeLa S3 nuclear extracts; assay: In vitro splicing assay (IVS), RT-qPCR of spliced product; assay type: biochemical; details: geometric mean
Outline: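 Read-out is one-step TaqMan RT-qPCR of spliced Ad2 mRNA with Ftz as reference, normalized to DMSO and fit by non-linear regression. Reactions held HeLa S3 nuclear extract, 2 ng Ad2-derived pre-mRNA and test compound, with 15 min preincubation. Splicing was started with ATP-containing activation buffer and run 90 min at 30 °C.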

[2] = tested on: Panc 05.04 cells (SF3b K700E mutant); assay: Cell proliferation and viability, CellTiter-Glo, 72 hours; assay type: cell-based; details: for CTGlo-ATS Mean MinResponse % 72 h PANC0504.1: −100% cidal, 0% static, 100% maximal growth; for GI50: geometric mean
Outline: (§1)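 ATP luminescence (CellTiter-Glo) was measured 72 h after treatment with compound at 10 μM–100 pM (11 points, half-log) in 0.1% DMSO. The Panc line was grown in RPMI-1640 plus insulin and 15% FBS, the other in 10% FBS. Data were normalised to time zero and vehicle controls, where −100% is cidal and 0% static.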

[3] = tested on: NCI-H1568 cells (high MCL1); assay: as above; assay type: cell-based; details: for GI50: geometric mean; for CTGlo-ATS Mean MinResponse % 72 h NCIH1568.1: −100% cidal, 0% static, 100% maximal growth
Outline: as §1

[4] = target: T1, SF3b complexes (Homo sapiens, UniProt O75533+Q7RTV0); assay: Scintillation proximity assay (SPA) with [3H]-labelled pladienolide probe; assay type: binding; details: SF3B1 (WT); geometric mean; read-out: SPA-ATS GMean IC50 (nM) SF3B1 (WT)
T1 construct: endogenous in cells; host or cells: Nuclear extracts; A HeLa S3 extract preparation is described for the in vitro splicing assay
Outline: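 SF3b complexes captured from nuclear extracts on anti-SF3B1 antibody SPA beads; test compounds pre-incubated 30 min before 2.5 nM [3H]-pladienolide probe added, then 30 min incubation. Bound probe read by scintillation; values from non-linear regression of concentration–response curves.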

[5] = Ad2.1 pre-mRNA substrate, read-out: qPCR-IVS-ATS GMean IC50 (nM) Ad2.1
[6] = Ad2.2 pre-mRNA substrate, read-out: qPCR-IVS-ATS GMean IC50 (nM) Ad2.2
[7] = Panc 05.04, read-out: CTGlo-ATS GMean GI50 (nM) 72 h PANC0504.1, PANC0504.1 cells, 72 h
[8] = NCI-H1568, read-out: CTGlo-ATS GMean GI50 (nM) 72 h NCIH1568.1, NCIH1568.1 cells, 72 h
[9] = Panc 05.04, 72 h, read-out: CTGlo-ATS GMean GI50 (nM) 72 h PANC0504.1, PANC0504.1 cells, 72 h
[10] = NCI-H1568, 72 h, read-out: CTGlo-ATS GMean GI50 (nM) 72 h NCIH1568.1, NCIH1568.1 cells, 72 h

Row | SMILES | IC50 [1, 5] | IC50 [1, 6] | CTGlo-ATS Mean MinResponse % 72 h PANC0504.1 ([2]; PANC0504.1 cells, 72 h) | GI50 [2, 7] | GI50 [3, 8] | CTGlo-ATS Mean MinResponse % 72 h NCIH1568.1 ([3]; NCIH1568.1 cells, 72 h) | IC50 [4] | GI50 [2, 9] | GI50 [3, 10]
1 | C/C(=C\c1cc(F)cc(N2CCN(S(=O)(=O)c3ccc4ccn(C)c4c3)CC2)c1)[C@H]1OC(=O)C[C@H](O)CC[C@H](C)[C@@H](OC(=O)N2CCN(C)CC2)/C=C/[C@@H]1C [Compound 115] | 335 nM | 233 nM | −97.417% | 85.2 nM | 88.9 nM | −93.625% | 144 nM |  | 
2 | C/C(=C\c1cc(F)c2cnn(C3CCOCC3)c2c1)[C@H]1OC(=O)C[C@H](O)CC[C@H](C)[C@@H](OC(=O)N2CCN(C)CC2)/C=C/[C@@H]1C [Compound 116] | 25 nM | 19.2 nM | −76.511% | 2.2 nM | 1.55 nM | −90.483% | 4.45 nM |  | 
3 | C/C(=C\c1cc(F)c2cn(C3CCOCC3)nc2c1)[C@H]1OC(=O)C[C@H](O)CC[C@H](C)[C@@H](OC(=O)N2CCN(C)CC2)/C=C/[C@@H]1C [Compound 117] | > 25000 nM | 69.6 nM | −95.049% | 50.2 nM | 79.8 nM | −55.709% | 9.76 nM |  | 
4 | C/C(=C\c1cc(F)cc(N2CCN(C(=O)C3CCOCC3)CC2)c1)[C@H]1OC(=O)C[C@H](O)CC[C@H](C)[C@@H](OC(=O)N2CCN(C)CC2)/C=C/[C@@H]1C [Compound 118] | 22 nM | 19.9 nM | −79.169% |  |  | −82.113% | 3.76 nM | 4.55 nM | 3 nM
5 | C/C(=C\c1cc(F)cc(N2CCN(C(=O)CN3CCOCC3)CC2)c1)[C@H]1OC(=O)C[C@H](O)CC[C@H](C)[C@@H](OC(=O)N2CCN(C)CC2)/C=C/[C@@H]1C [Compound 119] | 31 nM | 21.7 nM | −75.344% | 8.43 nM | 8.84 nM | −81.451% | 11.7 nM |  | 
6 | C/C(=C\c1cc(F)cc(N2CCN(C(=O)c3cn(C)cn3)CC2)c1)[C@H]1OC(=O)C[C@H](O)CC[C@H](C)[C@@H](OC(=O)N2CCN(C)CC2)/C=C/[C@@H]1C [Compound 120] | 25.3 nM | 26.5 nM | −78.098% |  |  | −75.164% | 3.97 nM | 9.42 nM | 11.2 nM
7 | C/C(=C\c1cc(F)cc(N2CCN(C(=O)CC3CC3)CC2)c1)[C@H]1OC(=O)C[C@H](O)CC[C@H](C)[C@@H](OC(=O)N2CCN(C)CC2)/C=C/[C@@H]1C [Compound 121] | 25.5 nM | 22 nM | −88.956% | 3.73 nM | 2.66 nM | −80.331% | 2.99 nM |  | 
8 | C/C(=C\c1cc(F)cc(N2CCN(C(=O)Cn3cccn3)CC2)c1)[C@H]1OC(=O)C[C@H](O)CC[C@H](C)[C@@H](OC(=O)N2CCN(C)CC2)/C=C/[C@@H]1C [Compound 122] | 18.8 nM | 14.3 nM | −70.057% | 2.1 nM | 2 nM | −85.128% | 5.5 nM |  | 
9 | C/C(=C\c1cc(F)cc(N2CCN(C(=O)c3cnco3)CC2)c1)[C@H]1OC(=O)C[C@H](O)CC[C@H](C)[C@@H](OC(=O)N2CCN(C)CC2)/C=C/[C@@H]1C [Compound 123] | 16.5 nM | 13.1 nM | −71.328% | 2.75 nM | 2.26 nM | −86.056% | 1.7 nM |  | 
10 | C/C(=C\c1cc(F)cc(N2CCN(S(=O)(=O)C3COC3)CC2)c1)[C@H]1OC(=O)C[C@H](O)CC[C@H](C)[C@@H](OC(=O)N2CCN(C)CC2)/C=C/[C@@H]1C [Compound 125] | 17.6 nM | 14.9 nM | −83.226% | 6.76 nM | 4.51 nM | −83.586% | 5.06 nM |  | 
11 | C/C(=C\c1ccc2ccnc(O)c2c1)[C@H]1OC(=O)C[C@H](O)CC[C@H](C)[C@@H](OC(=O)N2CCN(C)CC2)/C=C/[C@@H]1C [Compound 127] | > 25000 nM | 452 nM | 11.995% |  |  | −18.734% | 19.1 nM | 1070 nM | 835 nM
12 | CNC(=O)Cn1ncc2c(F)cc(/C=C(\C)[C@H]3OC(=O)C[C@H](O)CC[C@H](C)[C@@H](OC(=O)N4CCN(C)CC4)/C=C/[C@@H]3C)cc21 [Compound 128] | 3350 nM | 18.1 nM | −96.227% | 44.2 nM | 25.7 nM | −62.651% | 8.76 nM |  | 
13 | C/C(=C\c1cc(F)c2cnn(CC(=O)N3CCCC3)c2c1)[C@H]1OC(=O)C[C@H](O)CC[C@H](C)[C@@H](OC(=O)N2CCN(C)CC2)/C=C/[C@@H]1C [Compound 129] | 32 nM | 15.6 nM | −94.183% | 11.3 nM | 4.73 nM | −70.909% | 4.38 nM |  | 
14 | C/C(=C\c1cc(F)c2cnn(CC(=O)N3CCOCC3)c2c1)[C@H]1OC(=O)C[C@H](O)CC[C@H](C)[C@@H](OC(=O)N2CCN(C)CC2)/C=C/[C@@H]1C [Compound 130] | 43.9 nM | 30 nM | −93.452% | 18.3 nM | 12 nM | −72.458% | 37.1 nM |  | 
15 | C/C(=C\c1cc(F)c2cnn(CC#N)c2c1)[C@H]1OC(=O)C[C@H](O)CC[C@H](C)[C@@H](OC(=O)N2CCN(C)CC2)/C=C/[C@@H]1C [Compound 131] | 357 nM | 45.8 nM | −94.995% | 27.1 nM | 19.2 nM | −65.430% | 4.04 nM |  | 
16 | C/C(=C\c1cc(F)c2cnn(CC(=O)N(C)C)c2c1)[C@H]1OC(=O)C[C@H](O)CC[C@H](C)[C@@H](OC(=O)N2CCN(C)CC2)/C=C/[C@@H]1C [Compound 132] | 34.1 nM | 12.8 nM | −94.673% | 13.6 nM | 11.5 nM | −68.423% | 4.91 nM |  | 
